Reference: patent US4130709A, “Pleuromutilin glycoside derivatives” (Eli Lilly and Company, priority 1977, dated 1978)
≈ marks a conversion by molar mass, not a printed value. Like-named read-outs stand apart in the source and are kept apart here.

Columns and labels:
[1] = system: Streptococcus pneumoniae B1343; assay: in vivo antimicrobial activity, experimental infection in mice, Streptococcus pneumoniae B1343; settings: sc, two doses, infecting challenge 30 × LD50 (ip), read-out: ED50 × 2
Protocol: (§1) Typical compounds of the present invention have shown in vivo antimicrobial activity against experimental bacterial infections. When two doses of these compounds were administered to mice in illustrative infections, the activity observed was measured as an ED50 value [effective dose in mg/kg to protect 50% of the test animals; see Warren Wick, et al., J. Bacteriol. 81, 233-235 (1961)].

[2] = system: Pseudomonas sp. (fish); assay: in vitro activity against Pseudomonas sp. (fish); assay type: cell-based
Description: P. multocida, for example, is a causative agent of respiratory infection in cattle, poultry and swine. P. hemolytica is a major cause of respiratory disease in cattle. The activity of representative compounds of this invention (R^2 =H in group tested) against P. multocida and the Pseudomonas sp. is summarized in Table VI.

[3] = system: Peptostreptococcus intermedius; assay: standard agar-dilution test, anaerobic bacteria; assay type: cell-based; settings: Peptostreptococcus intermedius; 24-hour incubation; read-out: MIC
[4] = system: Bacteroides fragilis 1877; assay: standard agar-dilution test, anaerobic bacteria; assay type: cell-based; settings: Bacteroides fragilis 1877; 24-hour incubation; read-out: MIC
[5] = system: Spiroplasma citri; assay: in vitro inhibition of Spiroplasma citri measured by a color reaction; assay type: cell-based; parameters: key to Activity (color reaction): Red (R) includes complete inhibition; red-orange (RO) indicates partial inhibition; yellow (Y) indicates no inhibition
[6] = system: Staphylococcus aureus (H-Heatley) NRRL B-314; assay: in vitro turbidometric assay (Autoturb Microbiological Assay System) against Staphylococcus aureus; assay type: cell-based; settings: nutrient broth pH 7, approximately 4 hours at 37° C., A-40104 factor A as standard
Summary of the method: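 S. aureus H-Heatley NRRL B-314 grown in nutrient broth (pH 7), about 4 h at 37° C, with turbidity read on the Autoturb system. Compounds were dissolved in water and diluted to roughly 2.5–5.0 mcg activity/ml. Activity units were set against an A-40104 factor A standard curve (1.25–6.25 mcg/ml).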

[7] = system: Actinomyces israelii; assay: standard agar-dilution test, anaerobic bacteria; assay type: cell-based; settings: 24-hour incubation
[8] = system: Clostridium perfringens; assay: microbe, parasite or virus in culture; assay type: cell-based; settings: 24 h
[9] = system: Streptococcus pyrogenes C203; assay: in vivo antimicrobial activity, experimental infection in mice, Streptococcus pyrogenes C203; settings: sc, two doses, infecting challenge 500 × LD50 (ip), read-out: ED50 × 2
Protocol: as §1

[10] = system: Pasteurella multocida (bovine); assay: in vitro activity against Pasteurella multocida (bovine); assay type: cell-based
Description: (§2) The activity of representative compounds of this invention (R^2 =H in group tested) against P. multocida and the Pseudomonas sp. is summarized in Table VI.

[11] = system: Peptococcus asaccharolyticus; assay: standard agar-dilution test, anaerobic bacteria; assay type: cell-based; settings: Peptoniphilus asaccharolyticus, 24-hour incubation
[12] = system: Pasteurella multocida (turkey); assay: in vitro activity against Pasteurella multocida (turkey); assay type: cell-based
Description: as §2

[13] = system: Staphylococcus aureus 3055; assay: in vivo antimicrobial activity, experimental infection in mice, Staphylococcus aureus 3055; settings: two doses, read-out: ED50 × 2
Protocol: as §1

[14] = system: Bacteroides corrodens; assay: standard agar-dilution test, anaerobic bacteria; assay type: cell-based; settings: Eikenella corrodens; Bacteroides corrodens; 24-hour incubation; read-out: MIC
[15] = system: Fusobacterium necrophorum; assay: standard agar-dilution test, anaerobic bacteria; assay type: cell-based; settings: 24-hour incubation, read-out: MIC
[16] = system: Bacteroides melaninogenicus 1856/28; assay: standard agar-dilution test, anaerobic bacteria; assay type: cell-based; settings: Prevotella intermedia; Bacteroides melaninogenicus 1856/28; 24-hour incubation; read-out: MIC
[17] = system: Streptococcus pneumoniae Park I; assay: in vivo antimicrobial activity, experimental infection in mice, Streptococcus pneumoniae Park I; settings: sc, read-out: ED50 × 2
Protocol: as §1

[18] = system: Bacteroides fragilis 111; assay: standard agar-dilution test, anaerobic bacteria; assay type: cell-based; settings: Bacteroides fragilis 111; 24-hour incubation; read-out: MIC
[19] = system: Bacteroides melaninogenicus 2736; assay: standard agar-dilution test, anaerobic bacteria; assay type: cell-based; settings: Bacteroides melaninogenicus 2736; 24-hour incubation; read-out: MIC
[20] = system: Mycoplasma synoviae; assay: in vitro broth-dilution studies, mycoplasma; assay type: cell-based; settings: Mycoplasmopsis synoviae
Description: (§3) The minimal inhibitory concentrations (MIC's) of a number of typical compounds of the present invention (R^2 =H in group tested) against various mycoplasma species, as determined by in vitro broth-dilution studies, are summarized in Table V.

[21] = system: Mycoplasma hyorhinis; assay: in vitro broth-dilution studies, mycoplasma; assay type: cell-based
Description: as §3

[22] = system: Mycoplasma gallisepticum; assay: in vitro broth-dilution studies, mycoplasma; assay type: cell-based; settings: Mycoplasmoides gallisepticum
Description: as §3

[23] = system: Mycoplasma hyopneumoniae; assay: in vitro broth-dilution studies, mycoplasma; assay type: cell-based; settings: Mesomycoplasma hyopneumoniae
Description: as §3

[24] = system: Clostridium septicum; assay: standard agar-dilution test, anaerobic bacteria; assay type: cell-based; settings: 24-hour incubation
Protocol: (§4) Table IV summarizes the activity of typical compounds of this invention, as determined by the standard agar-dilution test.
(§5) *Endpoint read after 24-hour incubation

[25] = system: Bacteroides thetaiotaomicron; assay: standard agar-dilution test, anaerobic bacteria; assay type: cell-based; settings: 24-hour incubation
Protocol: as §4, §5

[26] = system: Bacteroides fragilis 1936B; assay: standard agar-dilution test, anaerobic bacteria; assay type: cell-based; settings: Bacteroides fragilis 1936B; 24-hour incubation; read-out: MIC
[27] = system: Streptococcus pneumoniae B1492; assay: in vivo antimicrobial activity, experimental infection in mice, Streptococcus pneumoniae B1492; settings: sc, two doses, infecting challenge 340 × LD50 (ip), read-out: ED50 × 2
Protocol: as §1

[28] = system: Peptococcus prevoti; assay: standard agar-dilution test, anaerobic bacteria; assay type: cell-based; settings: Peptococcus prevoti; 24-hour incubation; read-out: MIC
[29] = system: Bacteroides vulgatis; assay: standard agar-dilution test, anaerobic bacteria; assay type: cell-based; settings: Bacteroides vulgatis; 24-hour incubation; read-out: MIC
[30] = system: Eubacterium aerofaciens; assay: standard agar-dilution test, anaerobic bacteria; assay type: cell-based; settings: Collinsella aerofaciens; Eubacterium aerofaciens; 24-hour incubation; read-out: MIC
[31] = system: Peptostreptococcus anaerobius; assay: standard agar-dilution test, anaerobic bacteria; assay type: cell-based; settings: 24-hour incubation
[32] = system: Fusobacterium symbiosum; assay: standard agar-dilution test, anaerobic bacteria; assay type: cell-based; settings: Fusobacterium symbiosum; 24-hour incubation; read-out: MIC
[33] = system: swine dysentery; settings: cited from earlier work

**Q.** For `CC[C@]1(C)C[C@@H](OC(=O)CS[C@@H]2OC[C@@H](O)[C@H](O)[C@H]2O)[C@]2(C)[C@H](C)CC[C@]3(CCC(=O)[C@H]32)[C@@H](C)[C@@H]1O` [Compound 3], which ED50 [1] is on record?
**A.** 16.3 mg/kg

**Q.** And the MIC [2]?
**A.** 12.5 µg/mL (≈ 23.6 µM)

**Q.** What about the MIC [3] of the same compound?
**A.** 0.5 µg/mL (≈ 0.946 µM)

**Q.** What about the MIC [4] of the same compound?
**A.** 1 µg/mL (≈ 1.89 µM)

**Q.** And the “Activity (color reaction)” value ([5]; 0.01 ppm)?
**A.** R

**Q.** What about the “Activity (color reaction)” value ([5]; 0.05 ppm) of the same compound?
**A.** R

**Q.** And the “Activity (color reaction)” value ([5]; 0.1 ppm)?
**A.** R

**Q.** What about the “Activity (color reaction)” value ([5]; 1.0 ppm) of the same compound?
**A.** R

**Q.** And the “Units of Activity” value [6]?
**A.** 1150 to 1243 µg/mg

**Q.** What about the MIC [7] of the same compound?
**A.** 0.5 µg/mL (≈ 0.946 µM)

**Q.** And the MIC [8]?
**A.** 2 µg/mL (≈ 3.78 µM)

**Q.** And the ED50 [9]?
**A.** 7 mg/kg

**Q.** And the MIC [10]?
**A.** 6.25 µg/mL (≈ 11.8 µM)

**Q.** What about the MIC [11] of the same compound?
**A.** 0.5 µg/mL (≈ 0.946 µM)

**Q.** And the MIC [12]?
**A.** 6.25 µg/mL (≈ 11.8 µM)

**Q.** And the ED50 ([13]; Staphylococcus aureus, 3055, po, oral, infecting challenge 500 × LD50 (ip))?
**A.** 21 mg/kg

**Q.** What about the ED50 ([13]; Staphylococcus aureus, 3055, po, oral, infecting challenge 3400 × LD50 (ip)) of the same compound?
**A.** 29 mg/kg

**Q.** And the ED50 ([13]; Staphylococcus aureus, 3055, sc, sc, infecting challenge 400 × LD50 (ip))?
**A.** 1.6 mg/kg

**Q.** What about the MIC [14] of the same compound?
**A.** 1 µg/mL (≈ 1.89 µM)

**Q.** What about the MIC [15] of the same compound?
**A.** 1 µg/mL (≈ 1.89 µM)

**Q.** And the MIC [16]?
**A.** 0.25 µg/mL (≈ 0.473 µM)

**Q.** What about the ED50 [17] of the same compound?
**A.** 58.5 mg/kg

**Q.** What about the MIC [18] of the same compound?
**A.** 2 µg/mL (≈ 3.78 µM)

**Q.** And the MIC [19]?
**A.** 0.5 µg/mL (≈ 0.946 µM)

**Q.** And the MIC [20]?
**A.** 0.39 µg/mL (≈ 0.738 µM)

**Q.** And the MIC [21]?
**A.** 0.39 µg/mL (≈ 0.738 µM)

**Q.** And the MIC [22]?
**A.** 0.39 µg/mL (≈ 0.738 µM)

**Q.** And the MIC [23]?
**A.** ≤ 0.15 µg/mL

**Q.** What about the MIC [24] of the same compound?
**A.** 1 µg/mL (≈ 1.89 µM)

**Q.** What about the MIC [25] of the same compound?
**A.** 0.5 µg/mL (≈ 0.946 µM)

**Q.** What about the MIC [26] of the same compound?
**A.** 1 µg/mL (≈ 1.89 µM)

**Q.** And the ED50 [27]?
**A.** 13.2 mg/kg

**Q.** What about the MIC [28] of the same compound?
**A.** ≤ 0.125 µg/mL

**Q.** And the MIC [29]?
**A.** 1 µg/mL (≈ 1.89 µM)

**Q.** And the MIC [30]?
**A.** 0.5 µg/mL (≈ 0.946 µM)

**Q.** And the MIC [31]?
**A.** ≤ 0.125 µg/mL

**Q.** What about the MIC [32] of the same compound?
**A.** 1 µg/mL (≈ 1.89 µM)

**Q.** Which “effectiveness in the treatment of swine dysentery (in words)” value [33] does the source give for `C=C[C@]1(C)C[C@@H](OC(=O)CO)[C@]2(C)[C@H](C)CC[C@]3(CCC(=O)[C@H]32)[C@@H](C)[C@@H]1O` [pleuromutilin] here?
**A.** effective in the treatment of swine dysentery
